Experimental data reported in US5830871A, “Inhibitors of E-, P- and L-selectin binding” (The Scripps Research Institute, priority 1996, dated 1998).

Assays:
L-selectin = experiment: Inhibition of L-selectin; format: binding
P-selectin = experiment: Inhibition of P-selectin; format: binding
E-selectin [1] = target: T1, E-selectin (Homo sapiens, UniProt P16581); experiment: Inhibition of SLe^x glycoconjugate / HL-60 cell binding to immobilized sol-E-selectin
T1 construct: A 1.67 kbp DNA fragment encoding a truncated structural gene for E-selectin; made in house
T1 sequence (P16581 22-556 limits assumed): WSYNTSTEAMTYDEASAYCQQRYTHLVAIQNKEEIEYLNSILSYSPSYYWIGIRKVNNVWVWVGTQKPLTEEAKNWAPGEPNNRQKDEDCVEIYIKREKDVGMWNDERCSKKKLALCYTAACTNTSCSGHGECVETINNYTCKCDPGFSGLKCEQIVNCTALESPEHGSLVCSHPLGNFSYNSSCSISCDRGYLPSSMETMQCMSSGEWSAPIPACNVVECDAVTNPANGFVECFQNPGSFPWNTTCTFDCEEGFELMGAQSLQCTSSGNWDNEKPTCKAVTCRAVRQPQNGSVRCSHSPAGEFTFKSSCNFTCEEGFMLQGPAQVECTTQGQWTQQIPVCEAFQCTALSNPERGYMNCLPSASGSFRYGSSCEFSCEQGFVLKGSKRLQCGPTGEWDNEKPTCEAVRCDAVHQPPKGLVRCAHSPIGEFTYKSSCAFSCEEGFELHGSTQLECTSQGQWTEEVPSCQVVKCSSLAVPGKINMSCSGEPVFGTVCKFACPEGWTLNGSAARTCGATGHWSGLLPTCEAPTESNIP
Method: Analysis of compound 6 (class II compound; FIG. 1) as an inhibitor of SLe^x glycoconjugate binding to E-selectin provides an IC50 value of 0.8 mM, according to the method of S. A. DeFrees, et al., viz. J. Am. Chem. Soc. 1995, 117, 66.
A soluble form of E-selectin (sol-E-selectin) was prepared for inhibition assays of the SLe^x Mimetics. A 1.67 kbp DNA fragment encoding a truncated structural gene for E-selectin was isolated by PCR amplification of CDNA derived from messenger RNA that was isolated from IL-1 activated human endothelial cells. The CDNA was subcloned into the vector pBluescript II and was transfected into 293 cells. The clones were screened for the production of sol-E-selectin, and the clone 293#3 was selected as the stable cell line that produced the greatest amount of sol-E-selectin per cell. Sol-E-selectin was produced on a large scale from this line using a Nunc cell factory. Recombinant sol-E-selectin was isolated from the media using immunoaffinity chromatography.
The SLe^x Mimetics were assayed for ability to block the adhesion of HL-60 cells to immobilized sol-E-selectins (either on a polymeric column solid support or onto the surface of the assay vessle). Immobilized E-selectin was incubated first with inhibitor and then with HL-60 cells. The bound cells were lysed, and myeloperoxidase released from the bound cells was detected with o-phenylenediamine and hydrogen peroxide. The percentage inhibition was determined by comparing the absorbance of the resulting solution at 492 nm to that in wells containing no inhibitor.
Each data point in the E-selectin assay is a direct measure of cells bound using a quantitative enzyme assay. The values were then plotted to give the titration curve and IC50 values. On average, five assays were performed for each inhibitor, and the results were highly reproducible. […] The IC50 values reported here is derived from all the data. Procedure described herein is adopted from Wong et. al. J. Am. Chem. Soc. 1995, 177, 66-79.

E-selectin [2] = conditions: in vitro; cited from earlier work
[3] = system: neutrophil/P-selection-dependent rat model; conditions: cited from earlier work; for lung injury / tissue accumulation of neutrophils: intravenous infusion of up to 200 μg, cobra venom
[4] = blood stream; glycosidase; cited from earlier work
lung injury in rats = conditions: in vivo, read-out: IC50 value in vivo for protecting against lung injury; cited from earlier work
E-selectin [5] = conditions: cited from earlier work
[6] = system: adhesion of neutophils to endothelial cells; conditions: cited from earlier work
[7] = cited from earlier work

| Compound | inhibition of L-selectin (L-selectin; @ 3 mM) [%] | L-selectin inhibition activity compared with sialyl Lewis X (L-selectin; compared with sialyl lewis X) | inhibition of P-selectin (P-selectin; @ 3 mM) [%] | P-selectin inhibition activity compared with sialyl Lewis X (P-selectin; compared with sialyl lewis X) | IC50 (E-selectin [1]) [µM] | biological activity compared with SLe^x (E-selectin [1]; compared with SLe^x (0.50 mM)) | affinity for E-selectin (E-selectin [2]) | effective intravenous concentration ([3]; calculated from concentrations used, 200 μg) | lung injury [3] | tissue accumulation of neutrophils [3] | stability in the blood [4] | IC50 (lung injury in rats) [µM] | SLe^x/E-selectin interaction (E-selectin [5]) | adhesion of neutrophils to endothelial cells [6] | oral activity [7] |
| --- | --- | --- | --- | --- | --- | --- | --- | --- | --- | --- | --- | --- | --- | --- | --- |
| O=C(COP(=O)(O)O)[C@@H](O)[C@H](O)C[C@H]1O[C@H](CO)[C@@H](O)[C@H](O)[C@@H]1O [Compound 6] | > 80 | better or equal to that of sialyl lewis X | > 80 | better or equal to that of sialyl lewis X | 800 | almost the same biological activity as SLe^x | – | – | – | – | – | – | – | – | – |
| CC(=O)NC1C(O)CC(OC2C(O)C(CO)OC(OC3C(CO)OC(O)C(NC(C)=O)C3OC3OC(C)C(O)C(O)C3O)C2O)(C(=O)O)OC1C(O)C(O)CO (stereo not drawn) [SLe^x, NeuAcα2→3Galβ1→4(Fucα1→3GlcNAc] | – | – | – | – | 500 | – | relatively weak | less than 1 μM | dramatically reduced lung injury | diminished tissue accumulation of neutrophils | unstable in the blood stream | ~1 | inhibits the SLe^x /E-selectin interaction | blocks adhesion of neutophils to endothelial cells | orally inactive |
| NeuAcα2→3Galβ1→4(Fucα1→3)GlcNAcβ1, 3Galβ- [pentamer] | – | – | – | – | – | – | – | – | dramatically reduced lung injury | diminished tissue accumulation of neutrophils | – | – | – | – | – |
